Legend:
Assay in all cases: relative viability (nuclei count vs DMSO), 5 days (fraction); higher = more cells survive
[1] = compound: CN[C@@H]1C[C@H]2O[C@@](C)([C@@H]1OC)n1c3ccccc3c3c4c(c5c6ccccc6n2c5c31)C(=O)NC4 [Staurosporine] + C[C@@H](Oc1cc(-c2cnn(C3CCNCC3)c2)cnc1N)c1c(Cl)ccc(F)c1Cl [Crizotinib] (partner 1 µM)
Method in brief: (§1)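 Lung cancer cell lines in 1536-well plates got either a single drug or a fixed anchor-drug dose together with five library-drug doses (not always all listed) in √10 steps, by pin tool, on the day after seeding. Nuclei were counted after 5 days, and relative viability is the treated-to-vehicle ratio of nuclei counts. Values are medians of duplicate plates.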

[2] = compound: CN[C@@H]1C[C@H]2O[C@@](C)([C@@H]1OC)n1c3ccccc3c3c4c(c5c6ccccc6n2c5c31)C(=O)NC4 [Staurosporine] + Nc1ncn([C@H]2C[C@H](O)[C@@H](CO)O2)c(=O)n1 [Decitabine] (partner 2 µM)
Method in brief: as §1

[3] = compound: CN[C@@H]1C[C@H]2O[C@@](C)([C@@H]1OC)n1c3ccccc3c3c4c(c5c6ccccc6n2c5c31)C(=O)NC4 [Staurosporine] + O=C(CCCCCCC(=O)Nc1ccccc1)NO [Vorinostat] (partner 1 µM)
Method in brief: as §1

[4] = compound: O=c1[nH]cc(F)c(=O)[nH]1 [5-Fluorouracil] + O=C(CCCCCCC(=O)Nc1ccccc1)NO [Vorinostat] (partner 1 µM)
Method in brief: as §1

| Cell Line | relative viability ([1]; first compound 0.005 µM) | relative viability ([1]; first compound 0.01581 µM) | relative viability ([1]; first compound 0.05 µM) | relative viability ([1]; first compound 0.1581 µM) | relative viability ([1]; first compound 0.5 µM) | relative viability ([2]; first compound 0.005 µM) | relative viability ([2]; first compound 0.01581 µM) | relative viability ([2]; first compound 0.05 µM) | relative viability ([2]; first compound 0.1581 µM) | relative viability ([2]; first compound 0.5 µM) | relative viability ([3]; first compound 0.005 µM) | relative viability ([3]; first compound 0.01581 µM) | relative viability ([3]; first compound 0.05 µM) | relative viability ([3]; first compound 0.1581 µM) | relative viability ([3]; first compound 0.5 µM) | relative viability ([4]; first compound 0.02 µM) | relative viability ([4]; first compound 0.2 µM) | relative viability ([4]; first compound 0.6325 µM) | relative viability ([4]; first compound 2 µM) |
| --- | --- | --- | --- | --- | --- | --- | --- | --- | --- | --- | --- | --- | --- | --- | --- | --- | --- | --- | --- |
| NCI-H596 | 1.16 | 0.959 | 0.447 | 0.189 | 0.156 | 1.01 | 0.885 | 0.712 | 0.366 | 0.504 | 0.59 | 0.424 | 0.258 | 0.192 | 0.126 | 0.668 | 0.553 | 0.397 | 0.384 |
| HCC-366 | 0.972 | – | 0.171 | 0.0224 | 0.0156 | 0.348 | – | 0.116 | 0.0285 | 0.0403 | 0.331 | – | 0.0353 | 0.0261 | 0.0187 | 0.371 | 0.365 | 0.156 | 0.0639 |
| NCI-H2087 | 0.767 | 0.392 | 0.344 | 0.137 | 0.12 | 0.28 | 0.141 | 0.094 | 0.0598 | 0.0694 | 0.628 | 0.407 | 0.354 | 0.0753 | 0.0552 | 0.801 | 0.924 | 0.515 | 0.367 |
| RERF-LC-KJ | 0.823 | 0.717 | 0.516 | 0.223 | 0.244 | 0.647 | 0.397 | 0.275 | 0.23 | 0.201 | 0.599 | 0.403 | 0.302 | 0.197 | 0.224 | 0.741 | 0.736 | 0.725 | 0.56 |
| HOP-62 | 1.02 | 0.741 | 0.134 | 0.144 | 0.0781 | 0.219 | 0.289 | 0.19 | 0.131 | 0.126 | 0.168 | 0.0742 | 0.1 | 0.0731 | 0.0573 | 0.629 | 0.699 | 0.626 | 0.509 |
| NCI-H2126 | 0.994 | 0.8 | 0.635 | 0.486 | 0.407 | 0.612 | 0.521 | 0.468 | 0.43 | 0.363 | 0.784 | 0.201 | 0.426 | 0.233 | – | 0.59 | 0.296 | 0.279 | 0.262 |
| SW 1573 | 0.678 | 0.583 | 0.186 | 0.134 | 0.119 | 0.227 | 0.15 | 0.135 | 0.0749 | 0.067 | 0.811 | 0.391 | 0.152 | 0.0813 | 0.0557 | 0.873 | 0.843 | 0.778 | 0.466 |
| SK-LU-1 | 0.372 | 0.198 | 0.19 | 0.169 | 0.161 | 0.331 | 0.232 | 0.212 | 0.229 | 0.154 | 0.265 | 0.206 | 0.179 | 0.164 | 0.148 | 0.705 | 0.885 | 0.744 | 0.681 |

Reference: the supplement of paper PMC10307832
